Consider eight molecules from US20250206761A1, “HALOINDOLE MACROCYCLIC COMPOUNDS FOR THE TREATMENT OF CANCER” (Hoffmann-La Roche Inc., priority 2022, published 2025).

The term IC50 denotes the point on the concentration scale where inhibition reaches its midpoint. What is called half-life is the time in which the quantity being followed falls by half.

The structures appear in SMILES notation. A value given as a limit tells only on which side of the number the result lay.

The test system of series [1] is NCI-H358 (ATCC-CRL5807) cells. The series is described as follows: Cell viability assay, G12C (NCI-H358). To be noted: Homo sapiens; KRAS cell viability, NCI-H358, 72 hrs, Cell Counting Kit-8. It counts as cell-based, human. Put shortly: (§1)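 72-hr compound treatment, 0.5% DMSO final; NCI-H358 seeded 5,000 cells/well, AGS and SW620 2,000 cells/well. Endpoint: CCK-8, 2-hr development, OD450 minus OD650.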

Series [2] has as its system cryopreserved suspension hepatocytes from human. The series is described as follows: Human hepatocyte stability assay. It is filed as in vitro ADME. As to conditions: for Clearance Category: human hepatocytes; for CL_hep (Human): human hepatocytes 1×10^6 cells/mL, 37° C. The protocol:
The hepatocyte stability assay measures the rate of disappearance of a compound from incubations with cryopreserved suspension hepatocytes from human. Positive controls, including Midazolam, Raloxifene and Dextromethorphan, are included in every experiment. Incubations consist of […] tested compound and suspension of human hepatocytes (1×10^6 cells/mL) in supplemented Williams' E Medium with 10% FBS and 0.5% Penicillin-streptomycin. The hepatocyte suspension was incubated with intermittent shaking 900 rpm at 37° C., in a 5% CO2 incubator. The reaction was stopped by adding methanol containing internal standard (2 μM Tolbutamide) at 2, 10, 20, 40, 60 and 120 minutes after compound addition, depletion of the parent compound was monitored by LC-MS/MS analysis.

Series [3] concerns phosphorylation of ERK, KRAS G12C in NCJ-H358 cells. The experiment in a line: pERK inhibition assay, KRAS G12C. It is filed as cell-based, human. As to conditions: Homo sapiens, 4 hours. The essentials:
(§2)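 Seeding densities differed per line: 30,000/well for NCJ-H358 and SW620, 20,000/well for AGS, all in RPMI-1640 plus 10% FBS. After attachment overnight, compound was applied for 4 h. Phospho-ERK was then quantified by in-cell ELISA (OD450), with IC50 fitted sigmoidally.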

The next series has as its system SW620 (ATCC-CCL-227). The experiment in a line: Cell viability assay, G12V (SW620). As to conditions: Homo sapiens, SW-620; KRAS cell viability, SW620, 72 hrs, Cell Counting Kit-8. It is filed as cell-based, human. The essentials: as §1
A general note: Tetrazolium assays rely on reduction of a dye to a coloured formazan, in cell work by metabolically active cells.

Series [4] deals with phosphorylation of ERK, KRAS G12V in SW620. The series is described as follows: pERK inhibition assay, KRAS G12V. It counts as cell-based, human. As to conditions: Homo sapiens, SW-620, SW620, 4 hours. The essentials: as §2
The nature of series [5]: GSH reaction rates (inherent GSH reactivity). It is filed as in vitro ADME. Further details: half-life: dose or concentration left out as unconfirmed. As to conditions: for half-life: buffer, pH 7.4. The protocol:
For inherent GSH reactivity determination, compounds […] were incubated at 37° C. with and without 5 mM GSH for 0, 0.5, 1, 2, 4 and 6 h in 100 mM potassium phosphate buffer at pH 7.4. At the end of the designated time points, samples were quenched with acetonitrile containing 10 mM N-ethylmaleimide and an internal standard. Quenched samples were centrifuged, and supernatants were analyzed by LC-MS/MS for compound quantification.

Series [6] deals with phosphorylation of ERK, KRAS G12D in AGS cells. The experiment in a line: pERK inhibition assay, KRAS G12D. As to conditions: Homo sapiens, 4 hours. It counts as cell-based, human. The essentials: as §2

As to `CCn1c(-c2cc(N3CCN(CC(F)(F)F)CC3)cnc2[C@H](C)OC)c2c3cc(c(F)cc31)-c1csc(n1)C[C@H](NC(=O)[C@H](C(C)C)N1CCC3(CN(C(=O)[C@H](F)Cl)C3)C1=O)C(=O)N1CCC[C@H](N1)C(=O)OCC(C)(C)C2` (atropisomer, axis not shown; (M)) [Example 37, (2S)-2-[2-[(2R)-2-chloro-2-fluoro-acetyl]-5-oxo-2,6-diazaspiro[3.4]octan-6-yl]-N-[(7S,13S)-21-ethyl-24-fluoro-(20M)-20-[2-[(1S)-1-methoxyethyl]-5-[4-(2,2,2-trifluoroethyl)piperazin-1-yl]-3-pyridyl]-17,17-dimethyl-8,14-dioxo-15-oxa-4-thia-9,21,27,28-tetrazapentacyclo[17.5.2.1^2,5.1^9,13.0^22,26]octacosa-1(25),2,5(28),19,22(26),23-hexaen-7-yl]-3-methyl-butanamide], the IC50 was below 1 nM in series [1], 3 nM in series [3], 114 nM in the series with SW620 (ATCC-CCL-227) and 21 nM in series [4]. Also, the “Clearance Category” value in series [2] is “low (CL_hep (mL/min/kg)<6.96 is low clearance)”. Moreover, the “CL_hep (Human)” value in series [2] is on record as 2.4 mL/min/kg. The “T1/2(hour) in GSH” value in series [5] (5 mM GSH, 37° C., 100 mM potassium phosphate buffer pH 7.4, up to 6 h) is on record as “stable (If % depletion after 6 hour incubation is less than 20%, compounds were reported as stable)”. Further, the “Remaining at 6 hr in GSH (%)” value in series [5] (5 mM GSH, 37° C., pH 7.4, 6 hr) stood at 100%.
In the case of `CCn1c(-c2cc(N3CCOCC3)cnc2[C@H](C)OC)c2c3cc(c(F)cc31)-c1csc(n1)C[C@H](NC(=O)[C@H](C(C)C)N1CC[C@@]3(CCN(C(=O)[C@H](F)Cl)C3)C1=O)C(=O)N1CCC[C@H](N1)C(=O)OCC(C)(C)C2` (atropisomer, axis not shown; (M)) [Example 53, (2S)-2-[(5R)-7-[(2R)-2-chloro-2-fluoro-acetyl]-1-oxo-2,7-diazaspiro[4.4]nonan-2-yl]-N-[(7S,13S)-21-ethyl-24-fluoro-(20M)-20-[2-[(1S)-1-methoxyethyl]-5-morpholino-3-pyridyl]-17,17-dimethyl-8,14-dioxo-15-oxa-4-thia-9,21,27,28-tetrazapentacyclo[17.5.2.1^2,5.1^9,13.0^22,26]octacosa-1(25),2,5(28),19,22(26),23-hexaen-7-yl]-3-methyl-butanamide], the IC50 in series [1] was below 1 nM; in series [3] it was 3 nM; in the series with SW620 (ATCC-CCL-227) it was 932 nM; in series [4], 61 nM; in series [6] it was 46 nM.
With `CCn1c(-c2cc(N3CCOCC3)cnc2[C@H](C)OC)c2c3cc(c(F)cc31)-c1csc(n1)C[C@H](NC(=O)[C@H](C(C)C)N(C)C(=O)C1(F)CCN(C(=O)[C@H](F)Cl)CC1)C(=O)N1CCC[C@H](N1)C(=O)OCC(C)(C)C2` (atropisomer, axis not shown; (M)) [Example 54, 1-[(2R)-2-chloro-2-fluoro-acetyl]-N-[(1S)-1-[[(7S,13S)-21-ethyl-24-fluoro-(20M)-20-[2-[(1S)-1-methoxyethyl]-5-morpholino-3-pyridyl]-17,17-dimethyl-8,14-dioxo-15-oxa-4-thia-9,21,27,28-tetrazapentacyclo[17.5.2.1^2,5.1^9,13.0^22,26]octacosa-1(25),2,5(28),19,22(26),23-hexaen-7-yl]carbamoyl]-2-methyl-propyl]-4-fluoro-N-methyl-piperidine-4-carboxamide], the IC50 is below 1 nM in series [1]; 2 nM in series [3]; 13 nM with SW620 (ATCC-CCL-227); 15 nM in series [4]; 25 nM in series [6].
For the molecule `CCn1c(-c2cc(N3CCOCC3)cnc2[C@H](C)OC)c2c3cc(c(F)cc31)-c1csc(n1)C[C@H](NC(=O)[C@H](C(C)C)N(C)C(=O)[C@H]1CCN(C(=O)[C@H](F)Cl)C1)C(=O)N1CCC[C@H](N1)C(=O)OCC(C)(C)C2` (atropisomer, axis not shown; (M)) [Example 55, (3S)-1-[(2R)-2-chloro-2-fluoro-acetyl]-N-[(1S)-1-[[(7S,13S)-21-ethyl-24-fluoro-(20M)-20-[2-[(1S)-1-methoxyethyl]-5-morpholino-3-pyridyl]-17,17-dimethyl-8,14-dioxo-15-oxa-4-thia-9,21,27,28-tetrazapentacyclo[17.5.2.1^2,5.1^9,13.0^22,26]octacosa-1(25),2,5(28),19,22(26),23-hexaen-7-yl]carbamoyl]-2-methyl-propyl]-N-methyl-pyrrolidine-3-carboxamide], the IC50 in series [1] was below 3 nM; in series [3], 6 nM; in the series with SW620 (ATCC-CCL-227) it was 155 nM; in series [4], 75 nM; in series [6], 106 nM.
In the same order, the values of `CO[C@@H](C)c1ncc(N2CCN(C)CC2)cc1-c1c2c3cc(c(F)cc3n1CC(F)(F)F)-c1csc(n1)C[C@H](NC(=O)[C@H](C(C)C)N1CCC[C@@]3(CCN(C(=O)[C@H](F)Cl)C3)C1=O)C(=O)N1CCC[C@H](N1)C(=O)OCC(C)(C)C2` (single isomer, unassigned) [Example 16] are below 1 nM, 1 nM, 22 nM, 15 nM and 19 nM.
The matching figures for `CO[C@@H](C)c1ncc(N2CCN(C)CC2)cc1-c1c2c3cc(c(F)cc3n1CC(F)(F)F)-c1csc(n1)C[C@H](NC(=O)[C@H](C(C)C)N1CCC[C@]3(CCN(C(=O)[C@H](F)Cl)C3)C1=O)C(=O)N1CCC[C@H](N1)C(=O)OCC(C)(C)C2` (single isomer, unassigned) [Example 18]: 1 nM, 3 nM, 19 nM, 18 nM and 26 nM.
As for `CC(C)[C@@H](C(=O)N[C@H]1Cc2cc(O)cc(c2)-c2ccc3c(C(C)(C)C#N)cn(c3c2)CC(C)(C)COC(=O)[C@@H]2CCCN(N2)C1=O)N1CCC2(CN(C(=O)CCl)C2)C1=O` [RM44, reference compound], the IC50 in series [1] is 799 nM; in series [3], 1900 nM; in the series on SW620 (ATCC-CCL-227), above 10000 nM; in series [4], above 10000 nM; in series [6], above 10000 nM. Besides, the “Clearance Category” value in series [2] was “medium (16.24>CL_hep (mL/min/kg)>6.96 is medium clearance)”. The “CL_hep (Human)” value in series [2] was 14.7 mL/min/kg. Moreover, in series [5], the “conjugation with GSH” value is given as “formed conjugation with GSH”. The molecule also had a half-life in series [5] of 8.9 h.
With `CC(C)[C@@H](C(=O)N[C@H]1Cc2cc(O)cc(c2)-c2ccc3c(C(C)(C)C#N)cn(c3c2)CC(C)(C)COC(=O)[C@@H]2CCCN(N2)C1=O)N1CCCC2(CCN(C(=O)CCl)C2)C1=O` (some centres unmarked) [RM351, reference compound], the IC50 in series [3] is 356 nM; in series [4], above 10000 nM; in series [6], above 10000 nM. The “conjugation with GSH” value in series [5] is “formed conjugation with GSH”. This molecule showed a half-life in series [5] of 4.3 h.
